Assays:
[1] = system: Quadruplex DNA; test: Binding affinity to Bcl2 G-quadruplex DNA (unknown origin) assessed as enhanced fluorescence ratio at 5 uM after 5 mins by fluorescence titration assay relative to control; type: nucleic-acid assay
[2] = system: dsDNA; test: Binding affinity to 26-mer duplex DNA (unknown origin) assessed as compound fluorescence life time at 5 uM after 5 mins by fluorescence titration method (reference value: 0.192 nanoseconds); type: nucleic-acid assay

SMILES	Ratio [1]	Time [2] [nanoseconds]
CCn1c2ccccc2c2cc(/C=C(\C#N)c3ccc[n+](C)c3)ccc21.[I-]	> 6	
CCn1c2ccccc2c2cc(/C=C/c3sc4ccccc4[n+]3CC)ccc21.[I-]		2.69
